Data set [1] has as its system pooled human liver microsomes. The experiment in a line: Human liver microsome metabolic stability assay. The data set is classed as in vitro ADME. The conditions noted are these: for % Remaining 30 min / % Remaining 60 min / % Remaining 120 min: pooled human liver microsomes 1.0 mg/mL, 1 μM test compound, 37° C. The procedure:
The objectives of the present study were to determine the metabolic stability of the test compounds in pooled liver microsomal incubations and to perform full scan LC-MS analysis for the detection of major metabolites. Samples of the test compounds, exposed to pooled human liver microsomes, were analyzed using HPLC-MS (or MS/MS) detection. For determining metabolic stability, multiple reaction monitoring (MRM) was used to measure the disappearance of the test compounds. For metabolite detection, Q1 full scans were used as survey scans to detect the major metabolites.
Human liver microsomes were obtained from Absorption Systems L.P. (Exton, Pa.). The incubation mixture was prepared as follows:
The reaction mixture, minus cofactors, was prepared. An aliquot of the reaction mixture (without cofactors) was incubated in a shaking water bath at 37° C. for 3 minutes. Another aliquot of the reaction mixture was prepared as the negative control. The test compound was added into both the reaction mixture and the negative control at a final concentration of 1 μM. An aliquot of the reaction mixture was prepared as a blank control, by the addition of plain organic solvent (not the test compound). The reaction was initiated by the addition of cofactors (not into the negative controls), and then incubated in a shaking water bath at 37° C. Aliquots (200 μL) were withdrawn in triplicate at 0, 15, 30, 60, and 120 minutes and combined with 800 μL of ice-cold 50/50 acetonitrile/deionized water to terminate the reaction. The positive controls, testosterone and propranolol, were run simultaneously with the test compounds in separate reactions. All samples were analyzed using LC-MS (or MS/MS). An LC-MRM-MS/MS method was used for metabolic stability. Also, Q1 full scan LC-MS methods were performed on the blank matrix and the test compound incubation samples. The Q1 scans served as survey scans to identify any sample unique peaks that might represent the possible metabolites. The masses of these potential metabolites can be determined from the Q1 scans.
The test compounds were evaluated in the human liver microsome assay described above along with paroxetine as a control. The columns of Table 2 labelled “% remaining” refer to the percentage of each test compound remaining after 30, 60 and 120 minute intervals in the human microsomal assay.

For data set [2] the following is noted: 30 mg oral solution, radiolabeled, healthy volunteers, cited from earlier work.
For data set [3], the target named is T1, CYP2D6 (Homo sapiens, UniProt P10635). Conditions: mechanism-based; cited from earlier work.
T1 sequence (P10635 whole entry): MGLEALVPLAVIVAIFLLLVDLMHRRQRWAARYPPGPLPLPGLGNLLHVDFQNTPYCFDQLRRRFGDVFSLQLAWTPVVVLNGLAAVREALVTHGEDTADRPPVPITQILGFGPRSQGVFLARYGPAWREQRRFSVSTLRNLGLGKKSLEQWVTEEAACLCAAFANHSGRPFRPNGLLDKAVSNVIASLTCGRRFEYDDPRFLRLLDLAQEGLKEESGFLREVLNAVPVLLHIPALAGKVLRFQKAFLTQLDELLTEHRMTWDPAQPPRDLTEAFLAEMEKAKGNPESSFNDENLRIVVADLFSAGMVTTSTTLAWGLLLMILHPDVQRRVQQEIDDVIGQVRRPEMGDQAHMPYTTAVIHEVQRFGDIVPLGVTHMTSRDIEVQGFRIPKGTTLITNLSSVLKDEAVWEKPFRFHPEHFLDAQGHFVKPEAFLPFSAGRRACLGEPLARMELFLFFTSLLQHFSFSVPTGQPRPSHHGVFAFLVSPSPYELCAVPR
The target in data set [4] is T1, CYP2D6. The conditions noted are these: clinical; cited from earlier work.
For data set [5] the following is noted: cited from earlier work.
A further data set concerns mice. The experiment in a line: Forced tail suspension test, immobility time. Type of data set: in vivo. Conditions: 15 mg/kg oral (as free base), versus vehicle control. The procedure:
The product of Example 11 is tested at MDS Pharma by oral administration to mice (n=8) to determine its effect on total immobility time during forced tail suspension, using essentially the procedure of “Drug Discovery and Evaluation”, Vogel H G and Vogel W H (eds.), p. 304, 1997, Springer-Verlag, New York.

`Cl.[2H]C1([2H])Oc2ccc(OC[C@@H]3CNCC[C@H]3c3ccc(F)cc3)cc2O1` [A, (3S,4R)-3-((2,2-dideuterobenzo[d][1,3]dioxol-5-yloxy)methyl)-4-(4-fluorophenyl)piperidine hydrochloride]: in data set [1], the “% Remaining 30 min” value worked out at 29%, the “% Remaining 60 min” value came out at 26% and the “% Remaining 120 min” value came out at 16%.

With `Cl.[2H]C1([2H])Oc2ccc(OC([2H])([2H])[C@@H]3CNCC[C@H]3c3ccc(F)cc3)cc2O1` [B, (3S,4R)-3-((2,2-dideuterobenzo[d][1,3]dioxol-5-yloxy)dideuteromethyl)-4-(4-fluorophenyl)piperidine hydrochloride], in data set [1], the “% Remaining 30 min” value is 22%, the “% Remaining 60 min” value turned out to be 10% and the “% Remaining 120 min” value was 6%.

With `Fc1ccc([C@@H]2CCNC[C@H]2COc2ccc3c(c2)OCO3)cc1` [Compound 1, (3S,4R)-3-((benzo[d][1,3]dioxol-5-yloxy)methyl)-4-(4-fluorophenyl)piperidine], in data set [1] (human liver microsomes, summary of Table 2), the “stability in the microsome assay (in words)” value is on record as “relative stability”. In addition, in data set [1], the “% Remaining 30 min” value is recorded as 51%, the “% Remaining 60 min” value is 51% and the “% Remaining 120 min” value came out at 44%. Besides, in data set [2] (10-day period), the “excreted in the feces as parent compound” value is “less than 1%”; the “excreted in the feces, total” value is recorded as “About 36%”; the “excreted in the urine as metabolites” value is 62%; the “excreted in the urine as parent compound” value is 2%. In addition, the “excreted in the urine, total” value in data set [2] (10-day post-dosing period) is “approximately 64%”. At CYP2D6 [3], the “inactivation of CYP2D6 (in words)” value is on record as “highly potent, mechanism based inactivator”. The “reduction in CYP2D6 activity (in words)” value at CYP2D6 [4] is on record as “dose-dependent, highly significant reduction”. Besides, the “half-life, poor metabolizers versus extensive metabolizers” value in data set [5] (European cohort, low versus higher CYP2D6 activity) was “approximately 3 fold”. The “coefficients of variability across Cmax, Cmin and AUC” value in data set [5] (steady state, test population) is on record as 30-70%.

As for `CC(C)(C)OC(=O)N1CC[C@@H](c2ccc(F)cc2)[C@H](CO)C1` [Example 11, (3S,4R)-tert-butyl 4-(4-fluorophenyl)-3-(hydroxymethyl)piperidine-1-carboxylate], the “total immobility time during forced tail suspension” value in the data set with mice is recorded as “statistical reduction”.
